Experimental findings from paper PMC12040169 (PLOS Biology, 2025) are described below.

The data set is described as follows: in vitro. Conditions: human, hela cells, % viability.

Broadly, the viability is a read-out of living cells in per cent, often relative to untreated cells. For the compound `Cc1cccc([C@@H]2CN(Cc3ccccc3)C[C@]23CCCC(=O)N3)n1` [CBK283350], the viability at 28.5 h, 10 µM worked out at 107%.
On the same count and under the same terms, then `O=C(COc1ccc(S(=O)(=O)NC2CCCCC2)cc1Cl)Nc1ccc2c(c1)OCO2` [CBK267615], with 90.5%; and `CC(c1ccccc1)n1c(S)nnc1-c1cc(C(C)(C)C)n[nH]1` (stereo not drawn) [CBK268954], with 92.2%; and `O=C(CCCc1ccccc1)Nc1c(F)cc(F)cc1OC1CCNCC1` [CBK050222T], with 96.1%.
As for `COc1cccc(-c2nnnn2[C@H]2CO[C@H]3[C@@H]2OC[C@@H]3NC(=O)c2ccc(C)cc2)c1` [CBK289512], the viability at 28.5 h, 10 µM worked out at 94.1%.
Still for that read-out and setting: then `COc1ccc(Cc2c(C)nc3c(C(=O)NCCSC)cnn3c2C)cc1` [CBK162191], with 111%; and `c1ccc(-c2ccccc2CN2CCN(c3nccnc3OCCN3CCOCC3)CC2)cc1` [CBK082893T], with 90.7%; and `CCCN1CCC(CNC(=O)c2cc3ccc(OC)cc3n2C)CC1` [CBK282542], with 99.9%.
On the same count and under the same terms, then `CCOc1cccc(N2C(=O)CC(N3CCN(c4ccccn4)CC3)C2=O)c1` (stereo not drawn) [CBK262829], with 105%; and `CCOC(=O)c1cnn2c(O)cc(CN(Cc3ccco3)C3CC3)nc12` [CBK305613], with 82.3%; and `CCOC(=O)C1CCCN(Cc2ccc3c(c2)OCO3)C1` (stereo not drawn) [CBK074569], with 97.7%.
Still for that read-out and setting: the figure for `O=C(Nc1cccc(N2CCCC2=O)c1)c1ccccc1Nc1ccccc1` [CBK297729] is 85.8%.
With `COc1ccc(-c2ccc(C#N)c(SCc3ccncc3)n2)cc1` [CBK269883], the viability at 28.5 h, 10 µM came to 102%.
Still for that read-out and setting: then `O=C(C1=C(O)C(=O)N(CCN2CCOCC2)C1c1cccc(Br)c1)c1ccco1` (stereo not drawn) [CBK264490], with 94.4%; and `COc1ccccc1NC(=O)c1ccc(OC(C)C(=O)O)cc1` (stereo not drawn) [CBK266109], with 106%.
The same measure, in the same setting: the figure for `CCOC(=O)c1cnc2ccc(C(CCOCc3ccccc3)OCc3ccccc3)cc2c1O` (stereo not drawn) [CBK018405] is 93.8%; for `CC(NC(=O)c1ncoc1-c1ccccc1Cl)c1ccccn1` (stereo not drawn) [CBK282409] it is 94.8%.
On the same count and under the same terms, the figure for `COc1cc(CNc2cncc(-c3cccc(NC(C)=O)c3)n2)cc(OC)c1OC` [CBK066133] is 100%.
In the case of `CCOC(=O)c1sc2nc(C(C)N(C)Cc3ccco3)[nH]c(=O)c2c1C` (stereo not drawn) [CBK306148], the viability at 28.5 h, 10 µM was found to be 106%.
On the same count and under the same terms, then `CCCCc1c(O)c2ccccc2n(Cc2ccccc2)c1=O` [CBK219416], with 106%; and `O=C(CCN1C(=O)C2C3CCC(C3)C2C1=O)OCC(=O)c1ccc(-c2ccccc2)cc1` (stereo not drawn) [CBK265113], with 95.1%.
For the compound `CC1(C)CC(=O)C(C2(O)C(=O)Nc3ccc(Br)cc32)CO1` (stereo not drawn) [CBK263410], the viability at 28.5 h, 10 µM (bulk resorufin, single well) came to 92.3%.
Regarding `Nc1ccc(-c2ncccc2O)cc1` [CBK262937C], the viability at 28.5 h, 10 µM came out at 106%.
Same read-out and setting: then `CCOC(=O)N1CCCC(=O)c2c(C(=O)O)cn(C)c21` [CBK005301], with 86.4%; and `Cc1nc(C)c(C(=O)N2CCC(c3cc4cnccc4[nH]3)CC2)s1` [CBK283432], with 102%; and `O=C(NC1CCN(CC(F)(F)F)C1=O)c1cc(Cl)ccn1` (stereo not drawn) [CBK305223], with 98.6%.
Still for that read-out and setting: the figure for `COc1ccc(-c2ccnc(N[C@H]3CO[C@H]4[C@@H]3OC[C@@H]4NC(=O)c3ccccc3)n2)cc1` [CBK289526] is 83.5%; for `O=C(c1ccccc1)c1cn[nH]c1-c1ccccc1O` [CBK287970] it is 77.8%; for `CN1CCN(S(=O)(=O)c2ccc(NC(=O)Cc3ccc([N+](=O)[O-])cc3)cc2)CC1` [CBK268161] it is 121%.
On to `O=S(=O)(Cc1ccc(Cl)cc1)NCCCn1ccnc1` [CBK268372], for which the viability at 28.5 h, 10 µM worked out at 106%.
The same measure, in the same setting: then `CCOC(=O)C1=c2s/c(=C\c3cccnc3)c(=O)n2C(N)=C(C#N)C1c1cccnc1` (stereo not drawn) [CBK262549], with 107%; and `CC(Sc1nc2ccccc2[nH]1)c1nc2ccccc2[nH]1` (stereo not drawn) [CBK266502], with 89.7%.
Same read-out and setting: then `O=S(=O)(NCC1CCCO1)c1ccc2oc3ccc(S(=O)(=O)NCC4CCCO4)cc3c2c1` (stereo not drawn) [CBK265914], with 96.2%; and `Nc1ccc(Cc2ccc(N)c(C(=O)O)c2)cc1C(=O)O` [CBK261153], with 92.3%.
Still for that read-out and setting: then `O=C(Cc1csc(-c2c(Cl)cccc2Cl)n1)NC[C@H]1CC[C@H](C(=O)O)CC1` [CBK299767], with 85.7%; and `CCCNC(=O)c1nn2c(C(F)(F)F)cc(-c3ccccc3)nc2c1Cl` [CBK051499], with 110%.
Take `c1cc(-c2nccnc2NCC2CCCCC2)ccn1` [CBK037627]: the viability at 28.5 h, 10 µM was 99.4%.
On to `Cc1nc(N/N=C/c2ccc3c(c2)OCO3)sc1C` [CBK263098], for which the viability at 28.5 h, 10 µM worked out at 106%.
The same measure, in the same setting: then `COCCCn1c(CCC(=O)O)ccc1-c1ccc(F)cc1` [CBK267886], with 104%; and `Cc1ccc(CN2CCC(CN(C)C(=O)c3cc4sccc4[nH]3)CC2)o1` [CBK307522], with 102%; and `COc1ccc(NC(=O)c2cnn3c2NC(C(=O)O)=CC3c2ccccc2)cc1` (stereo not drawn) [CBK287240], with 101%.
The same measure, in the same setting: then `CCC1C=CCN1S(=O)(=O)c1cccc(C(=O)NCc2cnn(C)c2)c1` (stereo not drawn) [CBK307536], with 96.4%; and `Cc1cccn2c(CN3CC(O)C3)c(C(=O)N3CCCCC3)nc12` [CBK306662], with 88.3%; and `Cc1ccc(S(=O)(=O)N2CCSC2C(=O)O)cc1` (stereo not drawn) [CBK286964], with 86.8%.
Still for that read-out and setting: the figure for `Cc1cc(CC(=O)N/N=C/c2ccccc2)[nH]n1` [CBK007500] is 99.8%; for `S=C(NCc1cccs1)NC1CC1` [CBK008520] it is 86.4%; for `Cc1ccc(C(C)C(=O)N2CCC(O)(Cn3ccnc3C)CC2)cc1` (stereo not drawn) [CBK284660] it is 83.8%.
In the case of `Cc1noc(C)c1NC(=O)c1nccc2ccccc12` [CBK200310], the viability at 28.5 h, 10 µM was found to be 93.3%.
Same read-out and setting: then `O=C(O)c1cccc(-c2ccc(/C=N/NC(=O)c3sc4ccccc4c3Cl)o2)c1` [CBK263863], with 91%; and `CN1CCN(NC(=O)c2cc(-c3cccnc3)nc3ccc(Cl)cc23)CC1` [CBK267729], with 110%; and `O=C(Cn1cccc2cc(-c3cccs3)nc1-2)NC1CC1` [CBK281897], with 108%.
Still for that read-out and setting: then `Cn1c(=O)c2c(ncn2CCCn2cnc3c2c(=O)n(C)c(=O)n3C)n(C)c1=O` [CBK268933], with 106%; and `COc1ccc(OC)c(NC(=O)c2c(NCc3ccncc3)sc3c2CCC3)c1` [CBK266007], with 90.1%; and `CC(C)NC(=O)c1cc(C2CN(Cc3ccc4ncccc4c3)CCO2)nc2ccccc12` (stereo not drawn) [CBK285895], with 92.9%.
On the same count and under the same terms, the figure for `CC[C@H](Cn1c(=O)oc2ccccc21)NC(=O)c1cccs1` [CBK284540] is 80.7%.
As to `CCOC(=O)c1cccc(-c2ccsc2)n1` [CBK149244], the viability at 28.5 h, 10 µM stood at 97.6%.
In the case of `Cc1cc(C(=O)N2CCn3cc(C(F)(F)F)nc3C2)on1` [CBK282430], the viability at 28.5 h, 10 µM is 101%.
